Here are results for seven molecules from US7846436B2, “Oligonucleotides and related compounds” (ChemGenes Corporation, priority 2003, dated 2010).

Data set [1] can be described thus: Stability studies in pyridine and ammonia (TLC, Rf, UV, HPLC). In kind it is physicochemical. The conditions noted are these: 37° C., 18 hrs. As to the method: The 2′-deoxy, 2′,2′-difluorocytidine derivatives, N-Bz-Gemcitabine and 5′-O-DMT-(N-bz) Gemcitabine prepared as above, were tested for their stability.
Data set [2] has as its system human colon adenocarcinoma cancerous cells HT29. The data set is described as follows: Flow cytometric DNA cell cycle profile, killing of colon cancer cells. In kind it is cell-based. The conditions noted are these: for killing colon cancer cells HT29, compared with Gemcitabine (Gemzar) alone at equivalent dosages: 20 and 50 ng/ml Gemzar equivalent, 1 hour treatment, then 47 hours in normal medium without drugs, FIG. 13. (In general: Flow cytometry measures light scatter and fluorescence of single cells or particles in a stream.)

For data set [3], the system named is human colon normal cells CCD112CoN. In words: Flow cytometric DNA cell cycle profile, killing of colon normal cells. The conditions noted are these: 20 and 50 ng/ml Gemzar equivalent; 1 hour treatment, then 47 hours in normal medium without drugs; FIG. 14. The data set is classed as cell-based. The method, then: Monolayer cultures of human colon adenocarcinoma cancerous cells HT29 (American Type Culture Collection HTB-38), and human colon normal cells CCD112CoN (American Type Culture Collection CRL-1541) were grown in DMEM growth medium, or Dulbecco's modified Eagle's medium (DMEM; Sigma Chemical Co., St. Louis, Mo.) containing 10% fetal bovine serum (FBS; Biological Industries, Kibbutz, Israel). Incubation was in 10% CO2 at 37° C.
Gemzar (MW 299.5), or 2′-deoxy, 2′,2′-difluorocytidine hydrochloride for injection, as manufactured by Lilly France S.A., Fegersheim, France). Gemzar-ODNs were 2′-deoxy, 2′,2′-difluorocytidine (dFC, or difluorodeoxycitidine) linked to 4 oligodeoxynucleotide (ODN) sequences (synthesized by Chemgenes Corp, Wilmington, Mass.) as follows:
Aqueous stock solutions were prepared at the Gemzar or Gemzar-equivalent concentration of 0.2 mg/ml. Parallel monolayer cultures in log phase growth were treated for 1 hr at 37° C. with a final concentration of 0, 20 and 50 ng/ml of Gemzar or Gemzar equivalent from each of the 4 sequences of Gemzar-ODN that were synthesized. After the 1 hr pulse treatment with either Gemzar or Gemzar-ODNs, the cell cultures were reincubated for another 47 hr at 37° C. in normal DMEM growth medium without Gemzar or Gemzar-ODN. Control cultures were similar parallel cultures and had similar 1 hr and 47 hr reincubations, except without any Gemzar or Gemzar-ODN content. After the 47 hr reincubation, all cultures were evaluated at the same time for their DNA cell cycle profile using flow cytometry.
This was evaluated as previously described (Cell Death Differ. 4: 213-223, 1997; Exp. Cell Res. 240: 293-304, 1998). Propidium iodide (PI) stock solution was prepared at 50 ug/ml in tris buffered saline (1.21 mg/ml Tris, 0.584 mg/ml NaCl). Ribonuclease A (RNase A) was freshly added to the PI stock solution at 6 mg/ml immediately before use. Cells were harvested by scraping with a cell scraper and triturated to obtain a single cell suspension using a hypodermic syringe fitted with a 21-gauge needle. Cells were spun down at 1000 g for 5 min, and washed once in 5 ml phosphate buffered saline (PBS A, Oxoid, London, UK). Cells were then permeabilized by resuspending in 1% Bouin's fluid (15 parts 1.2% saturated aqueous picric acid, 5 parts formalin, 1 part glacial acetic acid) in PBS. Cells were repelleted and suspend in the PI-RNase for 1 hour over ice, before flow cytometric evaluation at ex/em 488/590 nm and 20,000 counts sample size. The Coulter Epics Elite ESP flow cytometer and Workstation program version 4.01 (Coulter Electronics, Hialeah, Fla.) were used with WinMDI version 2.8 (Scripps Research Institute, La Jolla, Calif.

[dFC] = 2'-deoxy-2',2'-difluorocytidine (gemcitabine) nucleoside, linked at the 5' end of the ODN; d = 2'-deoxy (DNA)

For `O=C(Nc1ccn([C@@H]2O[C@H](CO)[C@@H](O)C2(F)F)c(=O)n1)c1ccccc1` [Compound II, N-Benzoyl-2′-deoxy, 2′,2′-difluorocytidine], the “stability (breakdown) in pyridine and ammonia” value in data set [1] is “converted into 2′-deoxy, 2′,2′-difluorocytidine completely without any deterioration and byproduct formation”; in data set [1] (listed as N-Bz-Gemcitabine), “no breakdown of Gemcitabine, other than loss of the protecting group”.
For `COc1ccc(C(OC[C@H]2O[C@@H](n3ccc(NC(=O)c4ccccc4)nc3=O)C(F)(F)[C@@H]2O)(c2ccccc2)c2ccc(OC)cc2)cc1` [Compound III, 5′-O-DMT (N-Bz) 2′-deoxy, 2′,2′-difluorocytidine], in data set [1], the “stability (breakdown) in pyridine and ammonia” value is given as “no breakdown of Gemcitabine, other than loss of the protecting group”.
With `Cl.Nc1ccn([C@@H]2O[C@H](CO)[C@@H](O)C2(F)F)c(=O)n1` [Gemzar, 2′-deoxy, 2′,2′-difluorocytidine hydrochloride, reference compound], the “difference between the killing of cancer cells and normal cells” value in data set [2] (HT29 (FIG. 13) compared with CCD-112CO (FIG. 14) at equivalent dosages) is on record as “only minimal difference”.
For “dFC GGA CG (NGGACG; sugars from the 5' end [dFC]1 d5, backbone, methylation of C and the base at N not given here) [GEMCITABINE-ODN-Seq. I.D.#7, Gemzar-ODN]”, in data set [2], the “killing colon cancer cells HT29, compared with Gemcitabine (Gemzar) alone at equivalent dosages” value is reported as “much more effectively than by treatment with GEMCITABINE alone”. Besides, the “killing colon normal cells CCD-112CO, compared with Gemcitabine (Gemzar) alone at equivalent dosages” value in data set [3] is listed as “more effectively than by treatment with GEMCITABINE alone”.
Consider “dFC GGA CGT GGA ACG (NGGACGTGGAACG; sugars from the 5' end [dFC]1 d12, backbone, methylation of C and the base at N not given here) [GEMCITABINE-ODN-Seq. I.D.#9, Gemzar-ODN]”, for which, in data set [2], the “killing colon cancer cells HT29, compared with Gemcitabine (Gemzar) alone at equivalent dosages” value is on record as “much more effectively than by treatment with GEMCITABINE alone”. The “killing colon normal cells CCD-112CO, compared with Gemcitabine (Gemzar) alone at equivalent dosages” value in data set [3] was “more effectively than by treatment with GEMCITABINE alone”.
Taken in the same sequence, the figures for “dFC GGA GCT GGA ACG (NGGAGCTGGAACG; sugars from the 5' end [dFC]1 d12, backbone, methylation of C and the base at N not given here) [GEMCITABINE-ODN-Seq. I.D.#10, Gemzar-ODN]” were “much more effectively than by treatment with GEMCITABINE alone” and “more effectively than by treatment with GEMCITABINE alone”.
Taken in the same sequence, the figures for “dFC GTG GAA CG (NGTGGAACG; sugars from the 5' end [dFC]1 d8, backbone, methylation of C and the base at N not given here) [GEMCITABINE-ODN-Seq. I.D.#8, Gemzar-ODN]” were “much more effectively than by treatment with GEMCITABINE alone” and “more effectively than by treatment with GEMCITABINE alone”.
